From PMC8889123 (International journal for parasitology, 2019)

Target: T1, Ser/Thr protein phosphatase 5 (PbPP5) (Plasmodium berghei, UniProt A0A509AMH5)
T1 sequence (A0A509AMH5 407-711): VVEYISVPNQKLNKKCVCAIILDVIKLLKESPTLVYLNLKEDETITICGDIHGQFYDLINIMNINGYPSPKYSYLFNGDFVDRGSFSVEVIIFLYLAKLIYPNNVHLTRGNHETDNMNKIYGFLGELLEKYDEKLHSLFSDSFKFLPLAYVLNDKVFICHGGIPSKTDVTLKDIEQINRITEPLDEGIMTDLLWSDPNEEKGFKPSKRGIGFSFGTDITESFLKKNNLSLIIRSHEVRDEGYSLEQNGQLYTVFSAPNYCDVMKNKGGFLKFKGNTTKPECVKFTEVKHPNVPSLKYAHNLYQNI
Type: biochemical

Point of comparison: C[C@@]12C(=O)OC(=O)[C@]1(C)[C@H]1CC[C@@H]2O1 [cantharidin], IC50 74.3 nM. Against it:
- C[C@]1(C(=O)O)[C@@H]2CC[C@@H](O2)[C@@]1(C)C(=O)O [cantharidic acid] — 1.6-fold higher, 122 nM
- O=C(O)[C@@H]1[C@H](C(=O)O)[C@H]2CC[C@@H]1O2 [endothall] — 4.9-fold higher, 365 nM
- C=C1[C@@H](O)[C@@H]2O[C@]3(CC[C@H](/C=C/[C@@H](C)[C@@H]4CC(C)=C[C@@]5(O[C@H](C[C@@](C)(O)C(=O)O)CC[C@H]5O)O4)O3)CC[C@H]2O[C@@H]1[C@@H](O)C[C@H](C)[C@H]1O[C@@]2(CCCCO2)CC[C@H]1C [okadaic acid] — 57-fold lower, 1.3 nM
